Data: publication PMC5218480 (PLoS ONE, 2017)

Test system: MV-4-11 cells
Experiment: Gene expression microarray analysis (Affymetrix PrimeView) and GSEA
Format: cell-based, human
Set-up: RFU PODN (11730768_x_at) / Fold change /veh PODN (11730768_x_at) / RFU LINC00158 (11744669_a_at) / Fold change /veh LINC00158 (11744669_a_at) / RFU DUSP10 (11751237_a_at) / Fold change /veh DUSP10 (11751237_a_at) / RFU ID3 (11757404_x_at) / Fold change /veh ID3 (11757404_x_at) / RFU PLEKHG5 (11737974_s_at) / Fold change /veh PLEKHG5 (11737974_s_at) / RFU LRRC4B (11730491_at) / Fold change /veh LRRC4B (11730491_at) / RFU GIMAP4 (11747438_a_at) / Fold change /veh GIMAP4 (11747438_a_at) / RFU KRT8 (11758183_x_at) / Fold change /veh KRT8 (11758183_x_at) / RFU CNN1 (11734310_a_at) / Fold change /veh CNN1 (11734310_a_at) / RFU VPS37D (11726825_at) / Fold change /veh VPS37D (11726825_at) / RFU C10orf10 (11716522_x_at) / Fold change /veh C10orf10 (11716522_x_at) / RFU KIR2DL2 /// KIR2DL4 /// KIR2DL5A /// KIR2DL5B /// KIR2DS1 /// KIR2DS2 /// KIR2DS3 /// KIR2DS4 /// KIR3DL3 /// KIR3DL3 /// KIR3DS1 (11738374_at) / Fold change /veh KIR2DL2 /// KIR2DL4 /// KIR2DL5A /// KIR2DL5B /// KIR2DS1 /// KIR2DS2 /// KIR2DS3 /// KIR2DS4 /// KIR3DL3 /// KIR3DL3 /// KIR3DS1 (11738374_at) / RFU C1QL1 (11718748_at) / Fold change /veh C1QL1 (11718748_at) / RFU TMPRSS4 (11747572_a_at) / Fold change /veh TMPRSS4 (11747572_a_at) / RFU HAMP (11756126_x_at) / Fold change /veh HAMP (11756126_x_at) / RFU RNFT2 (11725882_a_at) / Fold change /veh RNFT2 (11725882_a_at) / RFU NR4A2 (11747474_a_at) / Fold change /veh NR4A2 (11747474_a_at) / RFU ABCC12 (11746883_a_at) / Fold change /veh ABCC12 (11746883_a_at) / RFU TMEM136 (11760407_x_at) / Fold change /veh TMEM136 (11760407_x_at) / RFU CLDN22 /// WWC2 (11732394_at) / Fold change /veh CLDN22 /// WWC2 (11732394_at) / RFU HLA-DPB1 (11760878_x_at) / Fold change /veh HLA-DPB1 (11760878_x_at) / RFU SPINT1 (11716480_a_at) / Fold change /veh SPINT1 (11716480_a_at) / RFU GAP43 (11754022_s_at) / Fold change /veh GAP43 (11754022_s_at) / RFU A4GNT (11735810_at) / Fold change /veh A4GNT (11735810_at) / RFU PRB3 (11715151_x_at) / Fold change /veh PRB3 (11715151_x_at) / RFU TUBB4B (11761932_at) / Fold change /veh TUBB4B (11761932_at) / RFU CAPN14 (11732068_a_at) / Fold change /veh CAPN14 (11732068_a_at) / RFU TMCC2 (11721928_a_at) / Fold change /veh TMCC2 (11721928_a_at) / RFU IRGQ (11745062_a_at) / Fold change /veh IRGQ (11745062_a_at) / RFU FAM174B (11720279_a_at) / Fold change /veh FAM174B (11720279_a_at) / RFU TMPRSS4 (11748680_a_at) / Fold change /veh TMPRSS4 (11748680_a_at) / RFU FAM212B (11763350_a_at) / Fold change /veh FAM212B (11763350_a_at) / RFU PLEKHG5 (11743358_a_at) / Fold change /veh PLEKHG5 (11743358_a_at) / RFU ZSCAN30 (11745921_a_at) / Fold change /veh ZSCAN30 (11745921_a_at) / RFU CMKLR1 (11741424_a_at) / Fold change /veh CMKLR1 (11741424_a_at) / RFU LOC101060620 /// MAPK8IP1 (11723275_at) / Fold change /veh LOC101060620 /// MAPK8IP1 (11723275_at) / RFU SPTSSB (11747773_x_at) / Fold change /veh SPTSSB (11747773_x_at) / RFU PRSS12 (11739890_at) / Fold change /veh PRSS12 (11739890_at) / RFU BIN1 (11741810_x_at) / Fold change /veh BIN1 (11741810_x_at) / RFU WNT11 (11732464_a_at) / Fold change /veh WNT11 (11732464_a_at) / RFU C10orf10 (11716521_a_at) / Fold change /veh C10orf10 (11716521_a_at) / RFU C5orf56 (11738089_at) / Fold change /veh C5orf56 (11738089_at) / RFU CYB561 (11721691_x_at) / Fold change /veh CYB561 (11721691_x_at) / RFU ANKRD19P (11752326_a_at) / Fold change /veh ANKRD19P (11752326_a_at) / RFU OR2T12 /// OR2T33 /// OR2T8 (11738714_s_at) / Fold change /veh OR2T12 /// OR2T33 /// OR2T8 (11738714_s_at) / RFU VCAN (11748164_a_at) / Fold change /veh VCAN (11748164_a_at) / RFU JSRP1 (11732532_at) / Fold change /veh JSRP1 (11732532_at) / RFU KRTAP10-11 (11738290_x_at) / Fold change /veh KRTAP10-11 (11738290_x_at) / RFU MYO3A (11730013_a_at) / Fold change /veh MYO3A (11730013_a_at) / RFU EBF3 (11725865_a_at) / Fold change /veh EBF3 (11725865_a_at) / RFU CAMK2N1 (11719241_x_at) / Fold change /veh CAMK2N1 (11719241_x_at) / RFU C5orf56 (11738088_a_at) / Fold change /veh C5orf56 (11738088_a_at) / RFU OLFML3 (11715873_a_at) / Fold change /veh OLFML3 (11715873_a_at) / RFU LOC100653217 /// NTM (11731650_a_at) / Fold change /veh LOC100653217 /// NTM (11731650_a_at) / RFU MAPK11 (11762145_a_at) / Fold change /veh MAPK11 (11762145_a_at) / RFU FIZ1 (11724087_x_at) / Fold change /veh FIZ1 (11724087_x_at) / RFU OASL (11726364_x_at) / Fold change /veh OASL (11726364_x_at) / RFU SOX15 (11748057_x_at) / Fold change /veh SOX15 (11748057_x_at) / RFU CD79A (11719716_a_at) / Fold change /veh CD79A (11719716_a_at) / RFU HIST1H1D (11736915_at) / Fold change /veh HIST1H1D (11736915_at) / RFU CASKIN2 (11723855_a_at) / Fold change /veh CASKIN2 (11723855_a_at) / RFU LOC730098 (11760151_x_at) / Fold change /veh LOC730098 (11760151_x_at) / RFU OR4N2 (11742367_at) / Fold change /veh OR4N2 (11742367_at) / RFU PRRT2 (11749266_a_at) / Fold change /veh PRRT2 (11749266_a_at) / RFU SNX32 (11753110_a_at) / Fold change /veh SNX32 (11753110_a_at) / RFU CDHR5 (11726645_a_at) / Fold change /veh CDHR5 (11726645_a_at) / RFU RCAN1 (11760418_a_at) / Fold change /veh RCAN1 (11760418_a_at) / RFU FAM167A (11723789_a_at) / Fold change /veh FAM167A (11723789_a_at) / RFU FAM26E (11764081_at) / Fold change /veh FAM26E (11764081_at) / RFU ISYNA1 (11749810_s_at) / Fold change /veh ISYNA1 (11749810_s_at) / RFU ACY1 (11761880_at) / Fold change /veh ACY1 (11761880_at) / RFU 11764098_at / Fold change /veh 11764098_at / RFU SAMD14 (11745864_x_at) / Fold change /veh SAMD14 (11745864_x_at) / RFU NPB (11741838_a_at) / Fold change /veh NPB (11741838_a_at) / RFU TMPRSS6 (11731388_a_at) / Fold change /veh TMPRSS6 (11731388_a_at) / RFU KRTAP10-2 (11738614_at) / Fold change /veh KRTAP10-2 (11738614_at) / RFU ARHGAP8 /// PRR5-ARHGAP8 (11727945_x_at) / Fold change /veh ARHGAP8 /// PRR5-ARHGAP8 (11727945_x_at) / RFU KRTAP5-7 /// NADSYN1 (11734609_at) / Fold change /veh KRTAP5-7 /// NADSYN1 (11734609_at) / RFU RASL12 (11751679_a_at) / Fold change /veh RASL12 (11751679_a_at) / RFU CDKN2B (11736163_a_at) / Fold change /veh CDKN2B (11736163_a_at) / RFU PRF1 (11729649_at) / Fold change /veh PRF1 (11729649_at) / RFU, ZNF638 /// ZNF638-IT1 / Fold change vs veh, ZNF638 /// ZNF638-IT1 / RFU, PANK3 / Fold change vs veh, PANK3 / RFU, SH3YL1 / Fold change vs veh, SH3YL1 / RFU, ZEB2 / Fold change vs veh, ZEB2 / RFU, NRIP1 / Fold change vs veh, NRIP1 / RFU, PTTG1IP / Fold change vs veh, PTTG1IP / RFU, CAPN2 / Fold change vs veh, CAPN2 / RFU, MED14 / Fold change vs veh, MED14 / RFU, SNORA58 / Fold change vs veh, SNORA58 / RFU, C1orf63 / Fold change vs veh, C1orf63 / RFU, LRRFIP1 / Fold change vs veh, LRRFIP1 / RFU, NDUFAF7 / Fold change vs veh, NDUFAF7 / RFU, SLC12A2 / Fold change vs veh, SLC12A2 / RFU, IBTK / Fold change vs veh, IBTK / RFU, ESF1 / Fold change vs veh, ESF1 / Fold change vs veh, TMEM50B / RFU, TAOK1 / Fold change vs veh, TAOK1 / RFU, ACBD3 / Fold change vs veh, ACBD3 / RFU, TMA16 / Fold change vs veh, TMA16 / RFU, RWDD3 / Fold change vs veh, RWDD3 / RFU, BCAT1 / Fold change vs veh, BCAT1 / RFU, EDEM3 / Fold change vs veh, EDEM3 / RFU, TMEM33 / Fold change vs veh, TMEM33 / RFU, WDR75 / Fold change vs veh, WDR75 / RFU, AHCTF1 / Fold change vs veh, AHCTF1 / RFU, TFRC / Fold change vs veh, TFRC / RFU, ZDHHC17 / Fold change vs veh, ZDHHC17 / RFU, NOM1 / Fold change vs veh, NOM1 / RFU, ARL8B / Fold change vs veh, ARL8B / RFU, ZBTB11 / Fold change vs veh, ZBTB11 / RFU, TAMM41 / Fold change vs veh, TAMM41 / RFU, KIAA1704 /// LOC100996395 / Fold change vs veh, KIAA1704 /// LOC100996395 / RFU, ING1 / Fold change vs veh, ING1 / RFU, TRMT61B / Fold change vs veh, TRMT61B / RFU, FUBP3 / Fold change vs veh, FUBP3 / RFU, TP53 / Fold change vs veh, TP53 / RFU, TNKS2 / Fold change vs veh, TNKS2 / RFU, ZFP14 / Fold change vs veh, ZFP14 / RFU, ACTR2 / Fold change vs veh, ACTR2 / RFU, PPP3R1 / Fold change vs veh, PPP3R1 / RFU, PIK3R1 / Fold change vs veh, PIK3R1 / RFU, HNRNPA1 / Fold change vs veh, HNRNPA1 / RFU, RNF170 / Fold change vs veh, RNF170 / RFU, ZNF28 / Fold change vs veh, ZNF28 / RFU, RNGTT / Fold change vs veh, RNGTT / RFU, OGT / Fold change vs veh, OGT / RFU, BRD1 / Fold change vs veh, BRD1 / RFU, MARS / Fold change vs veh, MARS / RFU, ZNF655 / Fold change vs veh, ZNF655 / RFU, FAHD1 / Fold change vs veh, FAHD1 / RFU, BDP1 / Fold change vs veh, BDP1 / RFU, LRRCC1 / Fold change vs veh, LRRCC1 / RFU, ARID1A / Fold change vs veh, ARID1A / RFU, ZNF146 / Fold change vs veh, ZNF146 / RFU, ZNF330 / Fold change vs veh, ZNF330 / RFU, GPN3 / Fold change vs veh, GPN3 / RFU, C9orf123 / Fold change vs veh, C9orf123 / RFU, N4BP2L2 / Fold change vs veh, N4BP2L2 / RFU, ARFIP1 / Fold change vs veh, ARFIP1 / RFU, FAM179B / Fold change vs veh, FAM179B / RFU, BCL10 / Fold change vs veh, BCL10 / RFU, UHRF1BP1L / Fold change vs veh, UHRF1BP1L / RFU, BET1 / Fold change vs veh, BET1 / RFU, CNOT2 / Fold change vs veh, CNOT2 / RFU, ZNF268 / Fold change vs veh, ZNF268 / Fold change vs veh, ZNF507 / RFU, DGCR2 / Fold change vs veh, DGCR2 / RFU, WDSUB1 / Fold change vs veh, WDSUB1 / Fold change vs veh, HSP90B1 /// MIR3652 / RFU, ADSS / Fold change vs veh, ADSS / RFU, GK / Fold change vs veh, GK / RFU, ZNF148 / Fold change vs veh, ZNF148 / RFU, TAF9 / Fold change vs veh, TAF9 / RFU, SLC1A5 / Fold change vs veh, SLC1A5 / RFU, SLMO2 / Fold change vs veh, SLMO2 / RFU, ABCC4 / Fold change vs veh, ABCC4 / RFU, LOC101060439 /// RAP1B / Fold change vs veh, LOC101060439 /// RAP1B / RFU, RFX7 / Fold change vs veh, RFX7 / RFU, GTPBP10 / Fold change vs veh, GTPBP10 / RFU, CNEP1R1 / Fold change vs veh, CNEP1R1 / RFU, BIVM-ERCC5 /// ERCC5 / Fold change vs veh, BIVM-ERCC5 /// ERCC5 / RFU, ILF3 / Fold change vs veh, ILF3 / RFU 11762660_at / Fold change /veh 11762660_at / RFU VCAN (11757783_s_at) / Fold change /veh VCAN (11757783_s_at) / RFU DDX43 (11728927_at) / Fold change /veh DDX43 (11728927_at) / RFU KRT8 (11758188_x_at) / Fold change /veh KRT8 (11758188_x_at) / RFU NKD1 (11759106_at) / Fold change /veh NKD1 (11759106_at) / RFU SRD5A1 (11742802_a_at) / Fold change /veh SRD5A1 (11742802_a_at) / RFU TPSAB1 /// TPSB2 (11721975_s_at) / Fold change /veh TPSAB1 /// TPSB2 (11721975_s_at) / RFU GSTM3 (11746129_a_at) / Fold change /veh GSTM3 (11746129_a_at) / RFU IL23R (11737362_x_at) / Fold change /veh IL23R (11737362_x_at) / RFU TMEM51 (11727254_a_at) / Fold change /veh TMEM51 (11727254_a_at) / RFU PIWIL2 (11732686_x_at) / Fold change /veh PIWIL2 (11732686_x_at) / RFU ORM1 (11744905_x_at) / Fold change /veh ORM1 (11744905_x_at) / RFU CCDC152 (11743942_at) / Fold change /veh CCDC152 (11743942_at) / RFU ECM1 (11717891_a_at) / Fold change /veh ECM1 (11717891_a_at) / RFU IL23R (11748794_a_at) / Fold change /veh IL23R (11748794_a_at) / RFU TNFAIP8L3 (11732012_x_at) / Fold change /veh TNFAIP8L3 (11732012_x_at) / RFU MBOAT4 (11741988_at) / Fold change /veh MBOAT4 (11741988_at) / RFU 11764193_at / Fold change /veh 11764193_at / RFU TMEM53 (11763286_at) / Fold change /veh TMEM53 (11763286_at) / RFU MAGEB2 (11727129_at) / Fold change /veh MAGEB2 (11727129_at) / RFU TMEM200A (11744735_a_at) / Fold change /veh TMEM200A (11744735_a_at) / RFU CCDC152 (11751479_a_at) / Fold change /veh CCDC152 (11751479_a_at) / RFU FAM211A (11726209_a_at) / Fold change /veh FAM211A (11726209_a_at) / RFU RGS16 (11746705_a_at) / Fold change /veh RGS16 (11746705_a_at) / RFU VCAN (11755009_s_at) / Fold change /veh VCAN (11755009_s_at) / RFU RHOB (11743442_s_at) / Fold change /veh RHOB (11743442_s_at) / RFU RGS16 (11720943_a_at) / Fold change /veh RGS16 (11720943_a_at) / RFU RGS16 (11720944_at) / Fold change /veh RGS16 (11720944_at) / RFU, VPS4B / Fold change vs veh, VPS4B / RFU, CREB1 / Fold change vs veh, CREB1 / RFU, DNAJC13 / Fold change vs veh, DNAJC13 / RFU, GNAQ / Fold change vs veh, GNAQ / RFU, CDK5R1 / Fold change vs veh, CDK5R1 / RFU, ZRANB3 / Fold change vs veh, ZRANB3 / RFU, CUL4A / Fold change vs veh, CUL4A / RFU, CCNY / Fold change vs veh, CCNY / RFU, UFL1 / Fold change vs veh, UFL1 / RFU, COG3 / Fold change vs veh, COG3 / RFU, DIAPH2 / Fold change vs veh, DIAPH2 / RFU, SKA2 / Fold change vs veh, SKA2 / RFU, AFF3 / Fold change vs veh, AFF3 / RFU, LMF1 / Fold change vs veh, LMF1 / RFU, IPO11 / Fold change vs veh, IPO11 / RFU, DFFB / Fold change vs veh, DFFB / RFU, FOXP1 / Fold change vs veh, FOXP1 / RFU, CARD8 / Fold change vs veh, CARD8 / RFU, STRN3 / Fold change vs veh, STRN3 / RFU, ADK / Fold change vs veh, ADK / RFU, RASSF2 / Fold change vs veh, RASSF2 / RFU, WIPF1 / Fold change vs veh, WIPF1 / RFU, LARP1B / Fold change vs veh, LARP1B / RFU, RASA1 / Fold change vs veh, RASA1 / RFU, RB1 / Fold change vs veh, RB1 / RFU, PPFIA1 / Fold change vs veh, PPFIA1 / RFU, MAT2A / Fold change vs veh, MAT2A / RFU, CCT5 / Fold change vs veh, CCT5 / RFU, WDR92 / Fold change vs veh, WDR92 / RFU, CUX1 / Fold change vs veh, CUX1 / RFU, TTC7A / Fold change vs veh, TTC7A / RFU, TMEM135 / Fold change vs veh, TMEM135 / RFU, DEPTOR / Fold change vs veh, DEPTOR / RFU, CPM / Fold change vs veh, CPM / RFU, DNAJB6 / Fold change vs veh, DNAJB6 / RFU, CACNA2D3 / Fold change vs veh, CACNA2D3 / RFU, DTX4 / Fold change vs veh, DTX4 / RFU, TFCP2 / Fold change vs veh, TFCP2 / RFU, GMCL1 /// GMCL1P1 / Fold change vs veh, GMCL1 /// GMCL1P1 / RFU, AEBP2 / Fold change vs veh, AEBP2 / RFU, SNHG1 /// SNORD22 /// SNORD25 /// SNORD26 /// SNORD27 /// SNORD28 /// SNORD29 /// SNORD31 / Fold change vs veh, SNHG1 /// SNORD22 /// SNORD25 /// SNORD26 /// SNORD27 /// SNORD28 /// SNORD29 /// SNORD31 / Fold change (Aza/veh), C12orf56 (ProbeSet 11735607_a_at) / Fold change (ACY-1035/veh), C12orf56 (ProbeSet 11735607_a_at) / Fold change (Aza/veh), FGFR1OP (ProbeSet 11751329_s_at) / Fold change (ACY-1035/veh), FGFR1OP (ProbeSet 11751329_s_at) / Fold change (Aza/veh), VPS36 (ProbeSet 11739960_a_at) / Fold change (ACY-1035/veh), VPS36 (ProbeSet 11739960_a_at) / RFU SYPL1 (11715823_x_at) / Fold change /veh SYPL1 (11715823_x_at) / RFU IGFBP7 (11715501_s_at) / Fold change /veh IGFBP7 (11715501_s_at) / RFU REEP3 (11722064_at) / Fold change /veh REEP3 (11722064_at) / RFU IGLL1 (11728026_x_at) / Fold change /veh IGLL1 (11728026_x_at): dose or concentration left out as unconfirmed
Conditions: MV-4-11 cells, 48 hours

Compound: Nc1ncn([C@@H]2O[C@H](CO)[C@@H](O)[C@H]2O)c(=O)n1 [azacitidine]
- Fold change /veh TMPRSS6 (11731388_a_at): 1.02
